The test system of experiment [1] is Aureobasidium pullulans IFO 4466 Acetylesterase 4466-I (Enzyme solution A). The experiment is described as follows: Determination of Km, hydrolysis of cephalosporin C to deacetylcephalosporin C (HPLC). To be noted: 0.05M acetate buffer pH 4.0, 30° C., one hour, cephalosporin C sodium dihydrate 0.2-5%, read-out: Km (substrate cephalosporin C). In kind it is biochemical. As for the experimental part:
(§1) (In case that the substrate is cephalosporin C)
(§2) Km values of Acetylesterase 4466-I and Acetylesterase 4466-II were determined in the following method.
(§3) To 0.05M acetate buffer solution (pH 4.0) containing cephalosporin C sodium dihydrate in a various concentration (0.2-5%)(4.5 ml), was added enzyme solution (0.5 ml).
(§4) The reaction mixture was incubated on a shaker at 30° C. for an hour. Subsequently, produced deacetyl cephalosporin C and unreacted cephalosporin C were determined by high pressure liquid chromatography. Km values of each esterase were calculated in a conventional manner.

Experiment [2] relates to Aureobasidium pullulans IFO 4466 Acetylesterase 4466-II (Enzyme solution B). The description is as above. To be noted: 0.05M acetate buffer pH 4.0, 30° C., one hour, cephalosporin C sodium dihydrate 0.2-5%, read-out: Km (substrate cephalosporin C). In kind it is biochemical. As for the experimental part:
as §1, §2, §3, §4

The term Km denotes the concentration of substrate that gives half-maximal velocity.

Turning to `CC(=O)OCC1=C(C(=O)O)N2C(=O)[C@@H](NC(=O)CCC[C@@H](N)C(=O)O)[C@H]2SC1` [cephalosporin C], the figures for the Km in experiment [1] and in experiment [2] were 11.5 mM and 13.7 mM, respectively.

The values are drawn from patent publication US4517299A, “Acetylesterases” (Fujisawa Pharmaceutical Co., Ltd., priority 1980, dated 1985).
